Structures can show the parent of a compound that is named as a salt. Where two headings read alike, the source gives them in different places.
What was measured:
[1] = Accelerated aging of lyophilized composition (assay of active components after reconstitution); format: physicochemical; conditions: accelerated conditions 40° C./75% RH
Method: Aliquots of the clear solution (3 ml) were filtered through a sterilizing 0.22 um filter into lyophilization vials (5 ml). The filled lyophilization vials were topped, but not sealed, with lyophilization stoppers and freeze-dried according the following procedure. The topped vials were placed into a commercial freeze-drier. The temperature of the drier was lowered to about −40° C. and maintained at that temperature for at least 6 hours. […] Following the three temperature increasing steps, the vials were sealed under vacuum, the freeze-drier was returned to normal atmospheric pressure, and the vials were removed from the freeze-drier. In accelerated aging conditions, the active components of the lyophilized compositions of the present invention have an extended shelf live of as much as 120 days. The accelerated aging data for one, three, and four weeks is set out in Table 1. In Table 1, each week of accelerated aging corresponds to about one month of normal aging. [table]

[2] = system: patient with erectile dysfunction; experiment: Treatment of a patient having erectile dysfunction by injection of the reconstituted lyophilized composition; format: in vivo; conditions: for treatment effect on erectile dysfunction: general method of treatment of Example 3, single lyophilized agent only
Source text: In one embodiment, a lyophilized composition may be used to treat a patient having erectile dysfunction. The lyophilized composition is formed by first providing an erectile inducing amount of at least one lyophilized compound selected from papverine hydrochloride, phentolamine mesylate, and alprostadil. The lyophilized composition is then reconstituted with a pharmaceutically acceptable solvent, such as sterilized water, to produce a reconstituted pharmaceutical solution. The reconstituted pharmaceutical solution is then administered to the patient. Once the lyophilized compounds are reconstituted, the reconstituted pharmaceutical solution may be administered to the patient by a variety of methods, including, but not limited to orally or by injection. In one embodiment, the composition is administered by injection. Any suitable method of injection, such as intracavernosal, intravenous, intraarterial, intramuscular, intraperitoneal, intraportal, intradermal or subcutaneous may be used.
A person, 75 kilogram (kg) […] patient is diagnosed with having erectile dysfunction. The patient is instructed to inject the lypholized preparation of 30 mg/ml papaverine, 1.0 mg/ml phentolamine mesylate, and 10 μg/ml alprostadil on a daily basis, if this is the intended frequency of sexual activity. The lyophilized papaverine, phentolamine, and alprostadil are prepared according to Example 1. The patient is examined after one month.
A 70 kg patient is apparently in good health. They present complaints of a loss of sexual desire and frequent erectile dysfunction. They report that although they are periodically interested in initiating sexual relations, on most occasions they are unable to maintain a high level of interest sufficiently long to initiate or to adequately respond to their spouse's initiating sexual activity. […] 1.0 mg/ml of lyophilized phentolamine is given to […]. The reconstituted phentolamine is injected about 0.5 hours before the patient intended to engage in sexual activity. The patient is examined after one month. They report that they take the drug combination 2-3 times per week.
Following the general method of treatment described in Example 3, non-critical variations are made to the composition of Example 3 such that only 10 μg/ml of lyophilized alprostadil is used.
Following the general method of treatment described in Example 3, non-critical variations are made to the composition of Example 3 such that only 30 mg/ml of lyophilized papaverine hydrochloride is used.

[3] = general solubility, not lyophilized; cited from earlier work
[4] = Week One, each week about one month of normal aging

## CCCCC[C@H](O)/C=C/[C@H]1[C@H](O)CC(=O)[C@@H]1CCCCCCC(=O)O [Alprostadil, alprostadil]
[1]; Week Four
  % of Expected: 95%
  Assayed Conc.: 0.0095 mg/mL
[1]; Week One
  % of Expected: 105%
  Assayed Conc.: 0.0105 mg/mL
[1]; Week Three
  % of Expected: 100%
  Assayed Conc.: 0.01 mg/mL
[2]
  treatment effect on erectile dysfunction: same positive treatment effect

## COc1ccc(Cc2nccc3cc(OC)c(OC)cc23)cc1OC [Papaverine HCl, papaverine hydrochloride]
[1]; Week Four
  % of Expected: 78%
  Assayed Conc.: 23.4 mg/mL
[1]; Week One
  % of Expected: 65.7%
[1]; [4]
  Assayed Conc.: 19.7 mg/mL
[1]; Week Three
  % of Expected: 67.7%
  Assayed Conc.: 20.3 mg/mL
[2]
  treatment effect on erectile dysfunction: same positive treatment effect
[3]
  solubility: about 30 mg/ml
physchem
  solubility: ~90 mg/mL

## Cc1ccc(N(CC2=NCCN2)c2cccc(O)c2)cc1 [Phentolamine Mesylate, phentolamine mesylate]
[1]; Week Four
  % of Expected: 100%
  Assayed Conc.: 1.0 mg/mL
[1]; Week One
  % of Expected: 100%
[1]; [4]
  Assayed Conc.: 1.0 mg/mL
[1]; Week Three
  % of Expected: 92%
  Assayed Conc.: .92 mg/mL
[2]; 70 kg patient, 1.0 mg/ml, injected about 0.5 hours before sexual activity, 2-3 times per week, examined after one month
  maintenance of erection: no difficulty maintaining an erection to completion of sexual intercourse
[2]; 70 kg patient, 1.0 mg/ml, injected about 0.5 hours before sexual activity, examined after one month
  sexual desire / motivation: feels motivated to initiate sexual activity

— patent US20080004310A1, “LYOPHILIZED PHARMACEUTICAL COMPOSITION” (priority 2006, published 2008)
